Measurements reported in US20250332078A1, “COSMETIC AND/OR PHARMACEUTICAL COMPOSITIONS CONTAINING CANNABINOIDS” (priority 2020, published 2025).
Where two headings read alike, the source gives them in different places.

Legend:
[1] = Color stabilization in o/w emulsion formulation; format: physicochemical
Description: Besides colour stability of pure product for end customer colour stability of the formulation is even more important. Discoloration is related for customer to shelf life, reduced efficacy and microbial contamination. Therefore, blends were tested in simple o/w emulsions adding an amino carboxylate and in the alternative a phytic acid salt. The results are shown in […]

IL8 = IL8 ELISA on HaCaT cells, inflammation triggered with IL1α; format: cell-based, human; settings: for IL8 inhibition / inhibition at 2.2 µM / inhibition at 4.6 µM / inhibition at 10 µM: HaCaT; for anti-inflammatory activity (IL8 secretion), in words: Example 2; for inhibition at 2.2 µM / inhibition at 4.6 µM / inhibition at 10 µM: Homo sapiens, read-out: IL8 inhibition
Description: Inflammation in the skin occurs after UV or chemical exposure, microbial infection or wounding to form a defense against pathogens. However, inflammation in response to UV is associated with degenerative processes in the skin resulting in photoaging, wrinkle and age spot formation. In order to identify the Anti-inflammatory (AI) potential of the test samples the inflammatory mediators interleukin 8 (IL8) were quantified, which initiate and mediate inflammation through recruitment of inflammatory cells from the vasculature. Another object has been identification of the synergistic activity of the test substances. For this purpose, the individual cellular AI potential of bisabolol and synthetic CBD (hereinafter referred to as “SymDStress” obtained from Symrise AG, Holzminden, Germany) with their combination in 100:5, 100:4, 100:3, 100:2 and 100:1 ratios were examined.
Interleukin 8 (IL-8) or CXCL8 is a chemokine produced by macrophages and other cell types such as epithelial cells, airway smooth muscle cells and endothelial cells. In humans, the interleukin-8 protein is encoded by the IL8 gene IL-8 is initially produced as a precursor which undergoes cleavage to create several active IL-8 isoforms. In culture, a 72 amino acid peptide is the major form secreted by all kinds of cells. Interleukin-8 is a key mediator associated with inflammation where it plays a key role in neutrophil recruitment and neutrophil degranulation. As an example, it has been cited as a pro-inflammatory mediator in gingivitis, psoriasis and other diseases. IL8 secretion is increased by various kinds of stress including UV & oxidant stress, which thereby cause the recruitment of inflammatory cells and induces a further increase in oxidant stress mediators, making it a key parameter in localized inflammation.
The ELISA assay uses a solid-phase type of enzyme immunoassay (EIA) to detect the presence of a protein in a liquid sample using antibodies directed against the protein to be measured. Performing an ELISA involves at least one antibody with specificity for that particular protein. The sample with an unknown amount of protein is immobilized on a solid support (usually a polystyrene microtiter plate). After the protein is immobilized, the detection antibody is added, forming a complex with the protein. The detection antibody can be covalently linked to an enzyme or can itself be detected by a secondary antibody that is linked to an enzyme through bio-conjugation. Between each step, the plate is typically washed with a mild detergent solution to remove any proteins or antibodies that are non-specifically bound. After the final wash step, the plate is developed by adding an enzymatic substrate to produce a visible signal, which indicates the quantity the protein to be measured in the sample.
In the present test approach, the IL8 produced and secreted by cells were determined in an Enzyme linked immunosorbance assay (ELISA) from cell supernatants utilizing antibodies detecting the IL8. The assay was performed on HaCaT cells by addition of test substances and their incubation for 6 h (37° C.). Afterwards, inflammation was triggered with IL1α for 2 h or respectively 24 h and IL8 was measured. Therefore, the quantitative sandwich enzyme immunoassay technique was employed. A monoclonal antibody specific for human IL-8 was pre-coated onto a microplate. Standards and samples/supernatants were pipetted into the wells and any IL-8 present was bound by the immobilized antibody. After washing away any unbound substances, an enzyme-linked polyclonal antibody specific for human IL-8 was added to the wells. Following a wash to remove any unbound antibody-enzyme reagent, a substrate solution was added. A color developed in proportion to the amount of IL-8 bound in the initial step. Therefore, the IL8 concentrations for unknown samples are interpolated from the standard curve. […]

Water solubility = format: physicochemical
[2] = ABTS assay, chemical anti-oxidative capacity
Description: The ABTS-Assay is a cell free in vitro test for the evaluation of the chemical AOX capacity. The assay principle bases on the reduction and the involved de-colorization of the green colored cationic radical 2,2′-Azinobis(3-ethylbenzothiazoline 6-sulfonic acid) (ABTS+) by antioxidants. The de-colorization can be measured photometrically at 734 nm. Determination of the anti-oxidative capacity is performed in 96-well microplates from Nunc (Wiesbaden, Germany) and with the microplate reader “Spark” from Tecan (Crailsheim, Germany).
Samples were incubated for 10 min at 30° C. with the 2,2′-Azinobis-(3-ethylbenzothiazoline-6-sulfonate (ABTS) radical cation (Sigma, St. Louis, USA) obtained by chemical conversion of ABTS with potassium persulfate (K2S2O8). As a positive control Trolox was co-tested. The degree of de-colorization was determined photometrically at 734 nm. Results are averaged from 2 independent experiments performed in quadruple technical replicates. The anti-oxidative capacity is expressed in IC50 values (concentration that scavenges 50% of the cationic radical relative to the untreated ABTS solution), which is determined by 4-parameter logistic regression.

NHDF cells = assay: DCF assay, cellular anti-oxidative capacity (ROS reduction); format: cell-based, human
Description: To quantify intracellular radicals in a cell model the dichlorofluorescein (DCF) assay was performed. Therefore, normal dermal human fibroblasts were used as a model for the skin dermis, where ROS would damage cells and the surrounding tissue, which as opposed to keratinocytes accumulate damage over the human life time. […] By intracellular esterases and oxidation, the non-fluorescent H2DCFDA is converted to the highly fluorescent 2′,7′-dichlorofluorescein (DCF). The non-fluorescent fluorescin (2′,7′-dichlorofluorescein diacetate (DCFH-DA) pass the cell membranes. In the cytoplasm, it is cleaved by intracellular esterases and thereby trapped in the cell. The oxidation of DCFH to DCF by intracellularly existing ROS originated from H2O2 added to the cells (reactive oxygen species) results in fluorescence.
Determination of the anti-oxidative capacity is performed in 96-well microplates from Nunc (Wiesbaden, Germany) and with the microplate reader “Spark” from Tecan (Crailsheim, Germany).
Cells are seeded in a black 96 well microplate with transparent bottom and incubated at 37° C. After 24 hours the cells were starved with 0.1% FBS for 24 h. Then the supernatant is aspirated and the test samples are added and incubated for 24 h. As a positive control Trolox is always co-tested. Then the DCF Assay is performed and the fluorescence is measured from bottom of well at EX/EM 485/528 nm. The cellular AOX capacity is expressed in percent as ROS reduction, which can be determined by rule of proportion in combination with the control.

[3] = Recrystallization in emulsion (Olympus microscope IX-70, polarized light); format: physicochemical
Description: To save energy and reduce CO2 there's a trend for cold process emulsions. So it's recommended to use liquid ingredients or well soluble ingredients. […] Recrystallization is evaluated with Olympus microscope IX-70 (60fold) polarized light. As synergist effects in terms of efficacy had been observed, SymDStress is solved in Dragosantol® 100 (Bisabolol). […] The mixture is suitable for cold/cold, hot/cold and cold/cold process emulsions, gels etc.
As synergist effects in terms of efficacy had been observed, SymD Stress is solved in Dragosantol® 100 (Bisabolol). […] Mixture is suitable for cold/cold, hot/cold and cold/cold process emulsions, gels. […] (see FIG. 1). After 6M 5° C. no change in formulation containing Bisabolol. Bisabolol is a very effective solvent for Cannabidiol and helps to prevent recrystallization in target application.

[4] = Colour stability of cannabidiol/bisabolol blend with stabilizers (LICO 690, L*a*b, ΔE); format: physicochemical; settings: FIG. 2
Description: Colour Stability is an important criterion for customers. Particularly, a product should not change colour during storage. Especially long term stability at room temperature dark stored (RTD) is important, as this simulates storage at a customer. To evaluate effect different antioxidants are tested in common used concentration (see Table 7). Colour is evaluated with LICO 690 (L*a*b-system). Results are compared with ΔE according to the following equation: […]

[5] = Table 1, 0.000034 % (0.0011 mM)
[6] = Table 1, 0.000074 % (0.0023 mM)
[7] = Table 1, 0.000159 % (0.0050 mM)
[8] = Table 1, 0.000343 % (0.0110 mM)

For `O=C([O-])CN(CCN(CC(=O)[O-])CC(=O)O)CC(=O)O.[Na+].[Na+]` [Disodium EDTA], the “discoloration of formulation, in words” value ([1]; after 1M storage at RTL, FIG. 3) was “excellent stabilizing agent against discoloration”.
In the case of `C=C(C)[C@@H]1CCC(C)=C[C@H]1c1c(O)cc(CCCCC)cc1O` [CBD (natural), cannabidiol, reference compound], the IL8 inhibition (IL8; [5]) is reported as −0.85%, the IL8 inhibition (IL8; [6]) is reported as 4.84% and the IL8 inhibition (IL8; [7]) is reported as 11.42%. The IL8 inhibition (IL8; [8]) was 31.90%.
In the case of `C=C(C)[C@@H]1CCC(C)=C[C@H]1c1c(O)cc(CCCCC)cc1O` [CBD (synthetic), cannabidiol], the “anti-inflammatory activity (IL8 secretion), in words” value (IL8) is reported as “significant anti-inflammatory activity”, the inhibition at 2.2 µM (IL8) is reported as 6% and the inhibition at 4.6 µM (IL8) is reported as 18%. It also gave an inhibition at 10 µM (IL8) of 31%, an IL8 inhibition (IL8; [5]) of −0.84% and an IL8 inhibition (IL8; [6]) of 13.91%. For the same compound, the IL8 inhibition (IL8; [7]) was 25.98%, the IL8 inhibition (IL8; [8]) was 34.25% and the IL8 inhibition (IL8; Table 3, 0.000150 % (0.005 mM)) was 21%. For the same compound, the “water solubility, in words” value (Water solubility) was “low water solubility”, the “AOX capacity compared to the technical positive control, in words” value [2] was “higher AOX capacity” and the Anti-oxidative capacity ([2]; 0.0000160 %) was 23%. It also gave an Anti-oxidative capacity ([2]; 0.0000310 %) of 28%, an Anti-oxidative capacity ([2]; 0.000160 %) of 84% and an Anti-oxidative capacity ([2]; 0.000310 %) of 96%. It also gave an Anti-oxidative capacity ([2]; 0.000470 %) of 100%, an Anti-oxidative capacity ([2]; 0.000630 %) of 100% and an ROS reduction (NHDF cells; Table 5, 0.0000031 % (0.0001 mMol/l)) of 24.01%. It also gave an ROS reduction (NHDF cells; Table 5, 0.0000063 % (0.0002 mMol/l)) of 35.43%, an ROS reduction (NHDF cells; Table 5, 0.0000126 % (0.0004 mMol/l)) of 34.74% and an ROS reduction (NHDF cells; Table 5, 0.0000157 % (0.0005 mMol/l)) of 34.55%. It also gave an ROS reduction (NHDF cells; Table 5, 0.0000397 % (0.0013 mMol/l)) of 40.61%, an ROS reduction (NHDF cells; Table 5, 0.0000496 % (0.0016 mMol/l)) of 48.96% and an ROS reduction (NHDF cells; Table 5, 0.000094 % (0.0003 mMol/l)) of 40.4%. The ROS reduction (NHDF cells; Table 6, 0.000001256 % (0.00004 mMol/l)) was 7.20%, the ROS reduction (NHDF cells; Table 6, 0.000001570 % (0.00005 mMol/l)) was −5.44% and the “reducing intracellular ROS expression” value (NHDF cells; summary of Table 5) was “up to 50%”. For the same compound, the recrystallization in formulation ([3]; 0.025% CBD, after 1M 5° C.) was “recrystallization can be observed” and the recrystallization in emulsion ([3]; after 1M at Room temperature dark (RTD) storage) was “recrystallization in emulsion is observed”.
For `CC(C)=CCC[C@](C)(O)[C@@H]1CC=C(C)CC1` [α-bisabolol, alpha-bisabolol], the “anti-inflammatory activity (IL8 secretion), in words” value (IL8) was “opposite effect”, the inhibition at 2.2 µM (IL8; Table 2, 0.0022 mM) was -14% and the inhibition at 4.6 µM (IL8; Table 2, 0.0046 mM) was -3%. It also gave an inhibition at 10 µM (IL8; Table 2, 0.01000 mM) of 1%, an IL8 inhibition (IL8; Table 3, 0.002847 % (0.100 mM)) of 39% and an ROS reduction (NHDF cells; Table 6, 0.00002847 % (0.00100 mMol/l)) of 10.61%.
With `O=C([O-])CC[C@@H](C(=O)[O-])N(CC(=O)[O-])CC(=O)[O-].[Na+].[Na+].[Na+].[Na+]` [Tetrasodium Glutamate Diacetate] the “discoloration in the end-formulation, in words” value ([1]; Table 9, FIG. 4) was “reduced discoloration”.
With Tocopherol the “discoloration of solution, in words” value [4] was “can prevent solution from discoloration”.
